Consider 16 compounds from PubChem BioAssay AID328 (DTP/NCI, 2004).

“And” between values parts separate entries of the source, which are not always exact repeats. Equal entries are not always repeated. Inconclusive results and toxic doses are left out. Residues, ends and D or L forms follow the SMILES beside them. *: point of attachment. Cbz = O=C(OCc1ccccc1)*; NHNH2 = NN*

This test has as its system BDF1 mice, P388 leukemia ip, median survival T/C. In words: NCI In Vivo Anticancer Drug Screen. Data for tumor model P388 Leukemia (intraperitoneal) in B6D2F1 (BDF1) mice. The conditions noted are these: endpoint: median survival time, higher = longer survival. The gist of the method:
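Reported as T/C, where T is the survival measurement in dosed animals and C the same measurement in vehicle controls.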

[1] abbreviates: dose: 50.0 mg/kg/injection, schedule: Q04DX003 (ip), vehicle: saline with Tween-80.
Setting [2] is: dose: 100.0 mg/kg/injection, schedule: Q04DX003 (ip), vehicle: saline with Tween-80.
Where [3] appears, read: dose: 200.0 mg/kg/injection, schedule: Q04DX003 (ip), vehicle: saline with Tween-80.
The mark [4] stands for this setting: dose: 400.0 mg/kg/injection, schedule: Q04DX003 (ip), vehicle: saline with Tween-80.
Setting [5] is: dose: 25.0 mg/kg/injection, schedule: Q01DX009 (ip), vehicle: saline.
Setting [6] is: dose: 100.0 mg/kg/injection, schedule: Q04DX003 (ip), vehicle: saline.
Where [7] appears, read: dose: 100.0 mg/kg/injection, schedule: Q01DX009 (ip), vehicle: saline with Tween-80.
Where [8] appears, read: dose: 200.0 mg/kg/injection, schedule: Q01DX009 (ip), vehicle: saline with Tween-80.

On to `CC(C)C(NC(=O)C1CCCN1C(=O)OCc1ccccc1)C(=O)NN` (stereo not drawn) (Cbz-Pro-Val-NHNH2; configuration not given here), for which the T/C is, setting by setting: under setting [1], 100 % of control; under setting [2], 100 % of control; under setting [3], 91 % of control; under setting [4], 100 % of control.
As for `O=c1[nH]cc(I)cc1I`, the T/C was 100 % of control under setting [3] and 100 % of control under setting [4].
Take `CN1CCCC(CC2c3ccccc3Sc3ccccc32)C1` (stereo not drawn): the T/C by setting is: (dose: 7.5 mg/kg/injection, schedule: Q01DX010 (ip), vehicle: saline) 100 % of control; (dose: 15.0 mg/kg/injection, schedule: Q01DX010 (ip), vehicle: saline) 100 % of control; (dose: 30.0 mg/kg/injection, schedule: Q01DX010 (ip), vehicle: saline) 100 % of control; (dose: 60.0 mg/kg/injection, schedule: Q01DX010 (ip), vehicle: saline) 109 % of control.
`Cc1ccc(S(=O)(=O)N(C)c2ccc(C(=O)O)cc2F)cc1`: the T/C reads like this: (dose: 75.0 mg/kg/injection, schedule: Q04DX003 (ip), vehicle: saline) 100 % of control; (dose: 150.0 mg/kg/injection, schedule: Q04DX003 (ip), vehicle: saline) 104 % of control; (dose: 300.0 mg/kg/injection, schedule: Q04DX003 (ip), vehicle: saline) 100 % of control.
In the case of `Brc1ccc(C[n+]2ccccc2)cc1`, the T/C (dose: 6.25 mg/kg/injection, schedule: Q01DX009 (ip), vehicle: saline) is 91 % of control; the T/C (dose: 12.5 mg/kg/injection, schedule: Q01DX009 (ip), vehicle: saline) was 87 % of control; the T/C under setting [5] is 95 % of control; the T/C (dose: 25.0 mg/kg/injection, schedule: Q04DX003 (ip), vehicle: saline) was 100 % of control.
Turning to `O=C(Cn1ccc(=O)[nH]c1=O)N1CCC2(CC1)SSC1(CCN(C(=O)Cn3ccc(=O)[nH]c3=O)CC1)S2`, the T/C was 100 % of control under setting [6]; 109 % of control (dose: 200.0 mg/kg/injection, schedule: Q04DX003 (ip), vehicle: saline); 90 % of control (dose: 400.0 mg/kg/injection, schedule: Q04DX003 (ip), vehicle: saline).
As for `Cc1cc(N(CCO)CCO)c2cc3ccc4cccc5ccc(c2n1)c3c45`, the T/C runs as follows: (dose: 25.0 mg/kg/injection, schedule: Q04DX003 (ip), vehicle: saline with Tween-80) 98 % of control; under setting [1], 110 % of control; under setting [2], 93 % of control and 100 % of control.
On to `O=C1NC(=O)C2C3C(C(O)(c4ccccc4)c4ccccn4)=CC(/C3=C(\c3ccccc3)c3ccccn3)C12` (stereo not drawn), for which the T/C is, setting by setting: (dose: 12.5 mg/kg/injection, schedule: Q01DX009 (ip), vehicle: Klucel (hydroxypropylcellulose) (HPC)) 100 % of control; (dose: 25.0 mg/kg/injection, schedule: Q01DX009 (ip), vehicle: Klucel (hydroxypropylcellulose) (HPC)) 113 % of control; (dose: 50.0 mg/kg/injection, schedule: Q01DX009 (ip), vehicle: Klucel (hydroxypropylcellulose) (HPC)) 86 % of control; (dose: 100.0 mg/kg/injection, schedule: Q04DX003 (ip), vehicle: Klucel (hydroxypropylcellulose) (HPC)) 109 % of control; (dose: 200.0 mg/kg/injection, schedule: Q04DX003 (ip), vehicle: Klucel (hydroxypropylcellulose) (HPC)) 100 % of control; (dose: 400.0 mg/kg/injection, schedule: Q04DX003 (ip), vehicle: Klucel (hydroxypropylcellulose) (HPC)) 100 % of control.
As for `C(=Nc1ccccc1)c1ccccc1C=Nc1ccccc1`, the T/C was 104 % of control under setting [2], 109 % of control under setting [3] and 100 % of control under setting [4].
In the case of `CCCN=C(N)c1ccc(N=C(N)c2ccc(N=C(N)c3ccc(C(N)=NCCC)cc3)cc2)cc1`, the T/C is, setting by setting: (dose: 10.0 mg/kg/injection, schedule: Q01DX009 (ip), vehicle: saline) 154 % of control; (dose: 15.0 mg/kg/injection, schedule: Q01DX009 (ip), vehicle: saline) 190 % of control.
`CSC1SCC2C(=O)N(C)C(C(C)C)C(=O)OCC(NC(=O)c3cnc4ccccc4n3)C(=O)NC(C)C(=O)N(C)C1C(=O)N(C)C(C(C)C)C(=O)OCC(NC(=O)c1cnc3ccccc3n1)C(=O)NC(C)C(=O)N2C` (stereo not drawn): the T/C was 86 % of control (dose: 0.4 micrograms/kg/injection, schedule: Q01DX009 (ip), vehicle: saline with Tween-80); 89 % of control (dose: 0.9 micrograms/kg/injection, schedule: Q01DX009 (ip), vehicle: saline with Tween-80); 112 % of control (dose: 1.9 micrograms/kg/injection, schedule: Q01DX009 (ip), vehicle: saline with Tween-80); 96 % of control (dose: 3.8 micrograms/kg/injection, schedule: Q01DX009 (ip), vehicle: saline with Tween-80); 118 % of control (dose: 5.0 micrograms/kg/injection, schedule: Q01DX010 (ip), vehicle: saline); 95 % of control (dose: 20.0 micrograms/kg/injection, schedule: Q01DX010 (ip), vehicle: saline). Besides, the T/C (dose: 30.0 micrograms/kg/injection, schedule: Q01DX009 (ip), vehicle: saline with Tween-80) is 175 % of control.
As for `C[C@H]1C=C(O)C(=O)[C@@]2(C)C[C@H]3CCC(=O)O[C@H]3C[C@H]12`, the T/C (dose: 2.5 mg/kg/injection, schedule: Q01DX009 (ip), vehicle: saline + alcohol) was 105 % of control; the T/C (dose: 5.0 mg/kg/injection, schedule: Q01DX009 (ip), vehicle: saline + alcohol) is 107 % of control; the T/C (dose: 10.0 mg/kg/injection, schedule: Q01DX009 (ip), vehicle: saline + alcohol) was 91 % of control; the T/C (dose: 20.0 mg/kg/injection, schedule: Q01DX009 (ip), vehicle: saline + alcohol) is 100 % of control.
With `Cn1c(=O)c2[nH]c(CCCc3nc4c([nH]3)c(=O)n(C)c(=O)n4C)nc2n(C)c1=O`, the T/C was 90 % of control under setting [5]; 89 % of control (dose: 50.0 mg/kg/injection, schedule: Q01DX009 (ip), vehicle: saline); 100 % of control (dose: 50.0 mg/kg/injection, schedule: Q04DX003 (ip), vehicle: saline); 96 % of control and 122 % of control (dose: 100.0 mg/kg/injection, schedule: Q01DX009 (ip), vehicle: saline); 108 % of control under setting [6].
For `CC(=O)CSc1ncnc2nc[nH]c12`, the T/C by setting is: under setting [7], 109 % of control; under setting [8], 109 % of control.
Take `Cc1cccc(C)c1NC(=S)N1CCC(CCCC2CCN(C(=S)Nc3c(C)cccc3C)CC2)CC1`: the T/C is 86 % of control (dose: 50.0 mg/kg/injection, schedule: Q01DX009 (ip), vehicle: saline with Tween-80); 90 % of control under setting [7]; 104 % of control under setting [8].
For the compound `Oc1c(Cl)cc(Cl)cc1/C=N/c1nc(-c2ccc(Cl)cc2)cs1`, the T/C reads like this: (dose: 0.78 mg/kg/injection, schedule: Q01DX009 (ip), vehicle: saline with Tween-80) 100 % of control; (dose: 1.56 mg/kg/injection, schedule: Q01DX009 (ip), vehicle: saline with Tween-80) 96 % of control; (dose: 3.12 mg/kg/injection, schedule: Q01DX009 (ip), vehicle: saline with Tween-80) 105 % of control.
